Literature values as cited in paper PMC8176454, “Synthesis and Assessment of Novel Probes for Imaging Tau Pathology in Transgenic Mouse and Rat Models” (ACS Chemical Neuroscience, 2021).

System: tau aggregates in P301S tau and GSK3-β X P301L tau (biGT) mice
Design: method as in PMID 26912432
Conditions: cited from earlier work

## CNc1ccc(-c2ccc3cc(OCC(O)C[18F])ccc3n2)cc1 (stereo not shown) [[^18F]THK5117]
  Binding to tau aggregates in two transgenic mouse models: bound to tau aggregates
